Assay results as given in patent US20010044445A1, “AZOLE INHIBITORS OF CYTOKINE PRODUCTION” (priority 1999, published 2001).
pIC50: −log10 of the molar value.

Columns and labels:
[1] = test system: Human peripheral blood mononuclear cells; assay: Human Concanavalin-A Proliferation Assay (Con HU Assay); assay type: cell-based; conditions: Homo sapiens, PBMC, concanavalin-A stimulated human PBMC; for inhibition at 10 µM / inhibition at 1 µM / inhibition at 100 µM: 72 h, 3 days, read-out: % Inhibition of proliferation (at concentrations of 1,10, or 100 μm); for inhibition at 10 µM: concentration 10 μm (in parentheses in the cell); for pIC50: tritiated thymidine; for inhibition at 1 µM: concentration 1 μm (in parentheses in the cell); for inhibition at 100 µM: concentration 100 μm (in parentheses in the cell)
How it was run: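 Histopaque-isolated human PBMC (50,000/well) were pre-incubated 15 min with compounds, then stimulated with concanavalin-A at 2.5 μg/ml final for 3 days at 37 °C, 5% CO2. Proliferation measured by 6 h pulse with 0.5 μCi/well [3H]thymidine and beta counting.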

melting point [°C]	Compound	inhibition at 10 µM [1] [%]	pIC50 [1]	inhibition at 1 µM [1] [%]	inhibition at 100 µM [1] [%]
122 to 124	O=C(Nc1ccc(-n2nc(C(F)(F)F)cc2C(F)(F)F)cc1)c1ccc(F)c(F)c1F [Example 226, N-[4-[3,5-bis(trifluoromethyl)-1H-pyrazol-1-yl]phenyl]-2,3,4-trifluorobenzamide]	100	7.37		
203 to 205	N#Cc1ccccc1NC(=O)c1ccc(-n2nc(C(F)(F)F)cc2C(F)(F)F)cc1 [Example 188, 4-[3,5-Bis(trifluoromethyl)-1H-pyrazol-1-yl]-N-(2-cyanophenyl)benzamide]	87	6.31		
145 to 146	Cc1noc(C)c1C(=O)Nc1ccc(-n2nc(C(F)(F)F)cc2C(F)(F)F)cc1C(F)(F)F [Example 278, N-[4-[3,5-bis(trifluoromethyl)-1H-pyrazol-1-yl]-2-(trifluoromethyl)phenyl]-3,5-dimethyl-4-isoxazolecarboxamide]			4	
150 to 152	CC(C)=CC(=O)Nc1ccc(-n2nc(C(F)(F)F)cc2C(F)(F)F)cc1 [Example 102, N-[4-[3,5-bis(trifluoromethyl)-1H-pyrazol-1-yl]phenyl]-3-methyl-2-butenamide]		6.30		100
167 to 168	COc1cc(C(F)(F)F)nn1-c1ccc(NC(=O)c2ccccc2F)cc1 [Example 313, 2-fluoro-N-(4-(5-methoxy-3-(trifluoromethyl)-1H-pyrazol-1-yl)phenyl)benzamide]		7.18		
173 to 175	O=C(/C=C/c1ccccc1Cl)Nc1ccc(-n2nc(C(F)(F)F)cc2C(F)(F)F)cc1 [Example 21, (E)-N-[4-[3,5-bis(trifluoromethyl)-1H-pyrazol-1-yl]phenyl]-3-(2-chlorophenyl)-2-propenamide]			2	
192 to 193	O=C(Nc1ccc(-n2nc(C(F)(F)F)cc2C(F)(F)F)cc1)c1cccc(I)c1 [Example 25, N-[4-[3,5-bis(trifluoromethyl)-1H-pyrazol-1-yl]phenyl]-3-iodobenzamide]	100	6.40		
196 to 197	Cc1cc(-n2nc(C(F)(F)F)cc2C(F)(F)F)ccc1NC(=O)c1snnc1C [Example 279, N-[4-[3,5-bis(trifluoromethyl)-1H-pyrazol-1-yl]-2-methylphenyl]-4-methyl-1,2,3-thiadiazole-5-carboxamide]			6	
175 to 177	O=C(Nc1ccc(-n2nc(C(F)(F)F)cc2C(F)(F)F)cc1)c1cnc(Cl)c(Cl)c1 [Example 268, N-[4-[3,5-bis(trifluoromethyl)-1H-pyrazol-1-yl]phenyl]-5,6-dichloro-3-pyridinecarboxamide]	100	6.46		
176 to 177	O=C(Nc1ccc(F)cc1F)c1ccc(-n2nc(C(F)(F)F)cc2C(F)(F)F)cc1 [Example 187, 4-[3,5-Bis(trifluoromethyl)-1H-pyrazol-1-yl]-N-(2,4-difluorophenyl)benzamide]		6.44	86	
194 to 195	CS(=O)(=O)c1cccc(C(=O)Nc2ccc(-n3nc(C(F)(F)F)cc3C(F)(F)F)cc2)c1 [Example 126, N-[4-[3,5-bis(trifluoromethyl)-1H-pyrazol-1-yl]phenyl]-3-(methylsulfonyl)benzamide]	79	5.31		
143 to 145	CC1(C(=O)Nc2ccc(-n3nc(C(F)(F)F)cc3C(F)(F)F)cc2)CC1(Cl)Cl (centres unmarked) [Example 3, N-[4-[3,5-bis(trifluoromethyl)-1H-pyrazol-1-yl]phenyl]-2,2-dichloro-1-methylcyclopropanecarboxamide]	100	6.48		
118 to 119	O=C(Nc1ccc(-n2nc(C(F)(F)F)cc2C(F)(F)F)cc1)c1nc(Cl)ccc1Cl [Example 167, N-[4-[3,5-bis(trifluoromethyl)-1H-pyrazol-1-yl]phenyl]-3,6-dichloro-2-pyridinecarboxamide]		6.55		100
206 to 208	N#Cc1cccc(C(=O)Nc2ccc(-n3nc(C(F)(F)F)cc3C(F)(F)F)nc2)c1 [Example 261, N-[2-[3,5-bis(trifluoromethyl)-1H-pyrazol-1-yl]-5-pyridinyl]-3-cyanobenzamide]			37	
170 to 173	O=C(COc1ccccc1[N+](=O)[O-])Nc1ccc(-n2nc(C(F)(F)F)cc2C(F)(F)F)cc1 [Example 168, N-[4-[3,5-bis(trifluoromethyl)-1H-pyrazol-1-yl]phenyl]-2-(2-nitrophenoxy)acetamide]			20	
100 to 102	COc1ccccc1C(=O)Nc1ccc(-n2nc(C(F)(F)F)cc2C(F)(F)F)cc1 [Example 143, N-[4-[3,5-bis(trifluoromethyl)-1H-pyrazol-1-yl]phenyl]-2-methoxybenzamide]		5.78		100
145 to 146	N#Cc1cc(C(F)(F)F)nn1-c1ccc(NC(=O)c2ccncc2)cc1 [Example 303, N-(4-(5-cyano-3-(trifluoromethyl)-1H-pyrazol-1-yl)phenyl)isonicotinamide]		6.31		
128 to 129	O=C(Nc1ccc(-n2nc(C(F)(F)F)cc2Cl)cc1)c1ccncc1F [Example 328, N-(4-(5-chloro-3-(trifluoromethyl)-1H-pyrazol-1-yl)phenyl)-3-fluoroisonicotinamide]		7.12		
163 to 167	Cc1oncc1C(=O)Nc1ccc(-n2nc(C(F)(F)F)cc2C(F)(F)F)cc1 [Example 184, N-[4-[3,5-bis(trifluoromethyl)-1H-pyrazol-1-yl]phenyl]-5-methyl-4-isoxazolecarboxamide]	90	6.38		
156 to 158	O=C(Nc1ccc(-n2nc(C(F)(F)F)cc2C(F)(F)F)cc1)c1ccc(Cl)cc1F [Example 296, N-(4-(3,5-bis(trifluoromethyl)-1H-pyrazol-1-yl)phenyl)-4-chloro-2-fluorobenzamide]		7.36		
177 to 179	Cc1nnsc1C(=O)Nc1ccc(-n2nc(C(F)(F)F)cc2O)cc1 [Example 288, N-[4-[5-hydroxy-3-(trifluoromethyl)-1H-pyrazol-1-yl]phenyl]-4-methyl-1,2,3-thiadiazole-5-carboxamide]			16	
> 245	O=C(Nc1ccc(-n2nc(C(F)(F)F)cc2C(F)(F)F)cc1)c1ccc(O)cc1 [Example 73, N-[4-[3,5-bis(trifluoromethyl)-1H-pyrazol-1-yl]phenyl]-4-hydroxybenzamide]	93	6.41		
174 to 176	O=C(Nc1ccc(-n2nc(C(F)(F)F)cc2C(F)(F)F)cc1)c1ccccc1[N+](=O)[O-] [Example 136, N-[4-[3,5-bis(trifluoromethyl)-1H-pyrazol-1-yl]phenyl]-2-nitrobenzamide]		6.65		99
